From US20240059688A1, “CONOLIDINE ANALOGUES AS SELECTIVE ACKR3 MODULATORS FOR THE TREATMENT OF CANCER” (Luxembourg Institute of Health (LIH), priority 2020, published 2024) come the findings set out here.

Each structure is given as a SMILES string.

Common to all, as to assay type: cell-based
What all share (conditions): conolidine 10 μM

In assay [1] the target is HRH2 (Homo sapiens, UniProt P25021). Description: GPCR β-arrestin screening (PathHunter gpcrMAX/orphanMAX), HRH2. As to the method:
(§1) In an effort to identify the target of conolidine among the GPCR family, we undertook a large scale screening program using a β-arrestin recruitment assay based on β-galactosidase complementation (PathHunter, DiscoverX). Over 240 receptors were tested for their ability to be activated or inhibited by conolidine (10 μM) (data not shown). These included 168 GPCRs from the gpcrMAX panel, covering over 60 distinct receptor families such as adrenergic, dopamine, P2Y or serotonin and 74 GPCRs from the orphanMAX panel.

The target in assay [2] is T1, Mast cells G protein-coupled receptor-X2 (MRGPRX2) (Homo sapiens, UniProt Q96LB1).
T1 sequence (Q96LB1 1-330): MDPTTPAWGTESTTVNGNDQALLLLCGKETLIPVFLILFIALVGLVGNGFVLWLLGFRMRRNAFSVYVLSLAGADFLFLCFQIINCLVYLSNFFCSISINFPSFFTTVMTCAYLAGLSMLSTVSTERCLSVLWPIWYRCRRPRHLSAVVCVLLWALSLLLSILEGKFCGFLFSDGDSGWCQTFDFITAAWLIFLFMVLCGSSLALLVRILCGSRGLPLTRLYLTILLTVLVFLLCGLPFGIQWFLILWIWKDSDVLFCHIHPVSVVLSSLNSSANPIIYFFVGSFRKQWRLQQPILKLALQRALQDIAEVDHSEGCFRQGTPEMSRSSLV
The assay is described as follows: GPCR β-arrestin screening (PathHunter gpcrMAX/orphanMAX), MRGPRX2. As to the method:
as §1

Assay [3] concerns the target cannabinoid receptor 2 (CNR2) (Homo sapiens, UniProt P34972). Description: GPCR β-arrestin screening (PathHunter gpcrMAX/orphanMAX), CNR2. On the procedure:
as §1

Assay [4] concerns the target T2, melatonin receptor 1B (MTNR1B) (Homo sapiens, UniProt P49286).
T2 sequence (P49286 1-362): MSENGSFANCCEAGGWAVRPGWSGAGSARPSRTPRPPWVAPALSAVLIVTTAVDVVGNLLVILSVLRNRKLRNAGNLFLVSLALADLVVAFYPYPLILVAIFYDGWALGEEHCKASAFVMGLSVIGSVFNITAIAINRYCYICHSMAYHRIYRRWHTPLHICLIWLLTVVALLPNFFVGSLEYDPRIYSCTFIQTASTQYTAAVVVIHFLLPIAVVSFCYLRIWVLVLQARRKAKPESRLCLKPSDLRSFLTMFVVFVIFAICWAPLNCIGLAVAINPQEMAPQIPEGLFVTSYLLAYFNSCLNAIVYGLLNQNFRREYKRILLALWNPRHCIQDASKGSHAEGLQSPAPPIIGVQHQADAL
Description: GPCR β-arrestin screening (PathHunter gpcrMAX/orphanMAX), MTNR1B. On the procedure:
as §1

Chain of cannabinoid receptor 2 (CNR2) (P34972 whole entry): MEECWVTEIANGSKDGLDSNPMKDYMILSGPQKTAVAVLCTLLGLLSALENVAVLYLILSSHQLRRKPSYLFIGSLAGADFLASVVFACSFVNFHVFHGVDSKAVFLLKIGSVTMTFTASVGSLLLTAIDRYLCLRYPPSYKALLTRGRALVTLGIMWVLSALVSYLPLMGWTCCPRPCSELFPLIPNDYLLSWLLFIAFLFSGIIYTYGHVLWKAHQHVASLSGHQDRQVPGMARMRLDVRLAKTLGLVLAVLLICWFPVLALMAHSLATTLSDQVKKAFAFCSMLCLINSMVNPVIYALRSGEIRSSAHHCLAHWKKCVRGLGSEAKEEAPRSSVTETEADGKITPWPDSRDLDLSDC
Chain of HRH2 (P25021 whole entry): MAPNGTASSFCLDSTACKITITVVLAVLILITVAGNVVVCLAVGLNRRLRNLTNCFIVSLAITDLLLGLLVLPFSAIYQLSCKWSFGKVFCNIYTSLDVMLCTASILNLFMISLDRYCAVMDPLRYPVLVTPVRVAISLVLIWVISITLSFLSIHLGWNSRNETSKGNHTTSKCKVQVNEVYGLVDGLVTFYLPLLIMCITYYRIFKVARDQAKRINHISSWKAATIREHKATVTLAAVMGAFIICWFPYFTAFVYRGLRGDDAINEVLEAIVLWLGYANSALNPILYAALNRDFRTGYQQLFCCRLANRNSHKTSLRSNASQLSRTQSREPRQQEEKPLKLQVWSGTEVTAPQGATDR

Turning to `C/C=C1/CN2CC[C@H]1C(=O)c1[nH]c3ccccc3c1C2` [WW-1, (4E,5R)-4-ethylidene-1,4,5,7-tetrahydro-2,5-ethanoazocino[4,3-b]indol-6(3H)-one], the “activity towards HRH2 in GPCR screening” value in assay [1] is “No activity was detected”. Also, in assay [2], the “activation of MRGPRX2 in GPCR screening” value was “only partially activated”. Besides, the “activation of CNR2 in GPCR screening” value in assay [3] is “only partially activated”. Further, the “activation of MTNR1B in GPCR screening” value in assay [4] is “only partially activated”.
